{"source": "patent US8791061B2", "about": "“Peptides for treating and preventing immune-related disorders, including treating and preventing infection by modulating innate immunity” (Soligenix, Inc., priority 2005, dated 2014)", "key": {"[1]": {"test_system": "methicillin-resistant Staphlococcus aureus (MRSA strain ATCC 33591, UC6685)", "assay": "Enhancing the efficacy of antibiotic treatment, MRSA infection of CD-1 mice", "assay_type": "in vivo", "settings": "peptide 60 mg/kg IP 24 hours prior to infection, in combination with vancomycin s.c. 1 and 5 hours post-infection; relative to vehicle or antibiotic alone; 5 or 8 days", "experimental": "Twenty-four hours prior to infection, peptide was administered at 60 mg/kg via IP injection to CD-1 mice (N=10 animals/group; FIG. 8A: male mice, FIG. 8B: female mice). Mice were then infected with methicillin-resistant Staphlococcus aureus (MRSA strain ATCC 33591 in FIG. 8A and UC6685 in FIG. 8B) via IP injection (1.5*10^7 in FIG. 8A and ˜4*10^5 in FIG. 8B). Vancomycin at the given dosage was administered twice subcutaneously 1 and 5 hours post-infection. Survival was monitored over 5 (FIG. 8A) or 8 (FIG. 8B) days."}, "DPPIV [2]": {"target": "T1, DPPIV (Mus musculus, UniProt P28843)", "T1 construct": "The plasma was transferred to a 96-well assay plate for the DPPIV assay; from tissue; host or cells: pooled heparinized whole blood of ICR mice; plasma isolated after incubation", "T1 sequence (P28843 37-760 limits assumed)": "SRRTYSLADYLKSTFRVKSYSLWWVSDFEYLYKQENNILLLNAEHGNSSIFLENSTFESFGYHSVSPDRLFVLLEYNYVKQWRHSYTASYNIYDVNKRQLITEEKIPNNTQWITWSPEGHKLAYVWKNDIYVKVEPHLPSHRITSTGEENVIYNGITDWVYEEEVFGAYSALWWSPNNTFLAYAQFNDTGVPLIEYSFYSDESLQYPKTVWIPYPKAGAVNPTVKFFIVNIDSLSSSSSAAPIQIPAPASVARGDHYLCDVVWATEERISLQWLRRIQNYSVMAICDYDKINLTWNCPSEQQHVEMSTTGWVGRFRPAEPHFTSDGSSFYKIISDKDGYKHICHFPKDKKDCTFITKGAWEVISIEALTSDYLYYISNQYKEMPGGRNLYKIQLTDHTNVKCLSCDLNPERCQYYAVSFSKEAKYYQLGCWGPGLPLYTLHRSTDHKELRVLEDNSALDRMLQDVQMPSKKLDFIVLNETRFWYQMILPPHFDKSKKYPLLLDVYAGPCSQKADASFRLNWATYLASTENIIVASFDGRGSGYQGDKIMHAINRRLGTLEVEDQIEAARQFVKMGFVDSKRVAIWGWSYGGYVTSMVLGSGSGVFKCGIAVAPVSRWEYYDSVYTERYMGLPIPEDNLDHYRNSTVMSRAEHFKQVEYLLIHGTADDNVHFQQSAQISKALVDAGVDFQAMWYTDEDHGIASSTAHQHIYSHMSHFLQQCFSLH", "assay": "Comparative DPPIV dose response curves in whole ICR mouse blood", "assay_type": "biochemical", "settings": "2 h at 37° C., different concentrations", "experimental": "Dose response of SEQ. ID. NO. 5 of the present invention and SEQ. ID NO. 7 in PCT/CA02/01830, filed Dec. 2, 2002 (KSRIVPAIPVSLL). Peptides were incubated at different concentrations with whole ICR mouse blood for 2 h at 37° C. Blood incubated with acetate buffered saline (20 mM) was used as a control. Following incubation, plasma was isolated by centrifugation for 10 minutes at 4000 rcf. The substrate Gly-Pro-p-nitroanilide (0.8 mM) was added to the plasma and the enzymatic rate of DPPIV was determined by monitoring the increase in UV absorbance of the product p-nitroaniline. […] ID. NO."}, "[3]": {"test_system": "LPS stimulated cytokine response", "assay": "Anti-inflammatory activity: ex vivo LPS stimulated cytokine response of PBMCs after in vivo peptide treatment", "set-up": "species or system mouse", "settings": "100 mg/kg intravenously, blood collected after 4 hours, PBMCs stimulated with LPS", "experimental": "The effect of peptide treatment on the ex vivo LPS stimulated cytokine response was measured. In these studies, SEQ ID NO 5 was administered intravenously at 100 mg/kg and after 4 hours, blood was collected from each mouse. PBMCs were isolated and stimulated with LPS and the resulting cytokine levels were determined."}, "DPPIV [4]": {"target": "T2, DPPIV (Homo sapiens, UniProt P27487)", "T2 construct": "from tissue; host or cells: heparinized whole blood of human volunteer donors; plasma isolated after incubation", "T2 sequence (P27487 39-766 limits assumed)": "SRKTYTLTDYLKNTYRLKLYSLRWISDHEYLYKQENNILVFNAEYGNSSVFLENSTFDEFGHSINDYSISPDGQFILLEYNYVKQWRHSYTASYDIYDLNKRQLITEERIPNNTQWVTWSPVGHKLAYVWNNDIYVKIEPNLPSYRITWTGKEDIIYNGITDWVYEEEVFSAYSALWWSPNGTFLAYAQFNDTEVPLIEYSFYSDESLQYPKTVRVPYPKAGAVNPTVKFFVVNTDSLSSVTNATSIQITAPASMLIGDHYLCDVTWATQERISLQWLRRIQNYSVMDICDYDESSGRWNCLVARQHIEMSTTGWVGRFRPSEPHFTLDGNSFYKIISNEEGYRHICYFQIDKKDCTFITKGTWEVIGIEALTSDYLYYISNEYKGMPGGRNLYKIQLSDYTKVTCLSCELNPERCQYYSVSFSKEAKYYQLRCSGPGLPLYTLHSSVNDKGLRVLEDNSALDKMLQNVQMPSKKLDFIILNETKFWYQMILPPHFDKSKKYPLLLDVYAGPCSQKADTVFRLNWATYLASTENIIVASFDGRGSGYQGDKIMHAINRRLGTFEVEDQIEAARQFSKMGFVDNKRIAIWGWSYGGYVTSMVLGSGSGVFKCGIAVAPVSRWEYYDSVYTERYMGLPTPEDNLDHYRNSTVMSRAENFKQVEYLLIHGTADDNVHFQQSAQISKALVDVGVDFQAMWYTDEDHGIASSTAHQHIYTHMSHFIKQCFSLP", "assay": "Plasma DPPIV activity assay with human blood", "assay_type": "biochemical", "settings": "2 hours at 37° C., dose response", "experimental": "Human blood was obtained by qualified medical personnel from volunteer donors and collected in heparinized blood collection tubes. Blood was aliquoted into 300 μL aliquots. The peptides were dissolved in acetate buffered saline, pH 5.5. 30 μL of various concentrations were added to 300 μL of blood and mixed by resuspension (final concentration in blood as indicated in FIG. 6). For the control, 30 μL of blank acetate buffered saline was added to 300 μL of blood. Each concentration was prepared in triplicate, whereas the control was prepared in six replicates. The samples were incubated at 37° C. in closed microtubes for two hours. After incubation the plasma was isolated from the samples by centrifugation at 4000 rcf. The plasma was transferred to a 96-well assay plate for the DPPIV assay. The assay was started by adding 5 μL of the DPPIV substrate gly-pro-p-nitroanilide (16 mM in de-ionized water) to 95 μL of plasma (concentration in plasma 0.8 mM) and the increase in UV absorbance (405 nm) was monitored over a 20 min time period. The rate of the production of p-nitroaniline by enzymatic cleavage of gly-pro-p-nitroanilide was taken as the activity of DPPIV (Durinx C et al., (2001) “Reference values for plasma dipeptidyl-peptidase IV activity and their association with other laboratory parameters”. Clin Chem Lab Med. 39(2):155-9.)"}}, "data": [{"substance": "KSRIVP (IMMUNOLOGICAL PEPTIDE) [SEQ ID NO 1]", "values": [{"measurement": "survival", "setting": "[1]", "value": "enhanced survival"}]}, {"substance": "KSRIVPAIPVSLL [ID NO; 7 in PCT/CA02/01830, filed Dec; 2, 2002, reference compound]", "values": [{"measurement": "DPPIV dose response", "setting": "DPPIV [2]", "value": "A similar dose response was absent"}]}, {"substance": "RIVPA [SEQ ID NO 5]", "values": [{"measurement": "inflammatory response to LPS stimulation (cytokine levels)", "setting": "[3]", "value": "decreased inflammatory response to LPS stimulation"}, {"measurement": "survival", "setting": "[1]", "value": "enhanced survival"}, {"measurement": "DPPIV dose response", "setting": "DPPIV [2]", "value": "larger decrease in DPPIV activity with increasing peptide concentration"}, {"measurement": "plasma DPPIV activity in human blood", "setting": "DPPIV [4]", "value": "comparable to that determined in mouse blood"}]}]}
